Test results from PubChem BioAssay AID1259420 (Broad Institute, 2018).
Values joined by “and” are separate entries in the source; they are usually repeats but may differ in a detail not shown here. Equal entries are not always repeated. Records with an inconclusive call do not appear. Active and inactive are the calls of the source. No rule for the calls is given here.

Each molecule was assayed on Toxoplasma gondii growth in host cells, no IFN-gamma (assay: compound activity on host-cell Toxoplasma growth – dose response (AID 1259420);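 also: host cells were HeLa; final incubation lasted 72 hours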).

SMILES | AC50
Cc1cccc(-c2nc(CN(c3ccccc3)S(=O)(=O)c3ccccc3)c(C)o2)c1 | 17.4 µM
Cc1cccc(OCC(=O)N2CCC3(CC2)Nc2ccc(Cl)cc2-n2cccc23)c1 | 13.7 µM
COc1ccccc1NC(=O)N1CCCCN2[C@H](CO)[C@@H](c3ccc(-c4cccc(C#N)c4)cc3)[C@@H]2C1 | 16.4 µM
Cc1ccc(S(=O)(=O)N2CC[C@H]3[C@@H](CO)N(C)c4ccc(-c5ccccc5F)cc4[C@H]32)cc1 | > 20 µM (inactive)
CC(=O)NC1=NN(C(C)=O)C(C)(c2ccccc2)S1 (centres undefined) | > 20 µM (inactive)
O=C(NC1CCCC1)[C@H]1[C@H](CO)[C@H]2Cn3c(ccc(C4=CCCCC4)c3=O)[C@@H]1N2CC1CC1 | > 39 µM (inactive)
CN1C(=O)c2cc(NC(=O)Cc3cccs3)ccc2OC[C@H]2O[C@@H](CC(=O)NCc3ccc(-c4ccccc4)cc3)CC[C@@H]21 | 20 µM and > 39 µM (inactive)
COc1ccc(S(=O)(=O)N(C)C[C@H]2Oc3c(NC(=O)c4nc5ccccc5s4)cccc3C(=O)N([C@@H](C)CO)C[C@@H]2C)cc1 | 11.3 µM and 1.88 µM
O=C(Cc1cccnc1)N1CC(=O)N2[C@H](CO)[C@@H](c3ccc(C#CC4CCCCC4)cc3)[C@H]2C1 | > 20 µM (inactive)
Cc1cnc(N2CCC3(CCC(CC(=O)N4CC=CC4)CC3)CC2)nc1 | 22.6 µM
O=C(Nc1ccc(F)cc1)N1C[C@@H]2N[C@H](C1)C2c1ccc(/C=C/c2ccccc2)cc1 (some centres undefined) | 9.87 µM
O=C(Nc1ccc(F)cc1)N1CC(=O)N2[C@H](C1)[C@H](c1ccc(-c3cccc(F)c3)cc1)[C@@H]2CO | 15 µM
O=c1c(O)c(-c2ccc(O)c(O)c2)oc2cc(O)cc(O)c12 | 15.8 µM
COc1ccccc1CN1CC[C@@H]2[C@H](CO)Nc3ccc(-c4cccc(C(=O)N(C)C)c4)cc3[C@@H]21 | 13.6 µM
COc1ccc(-c2nc(Nc3ccc(CN4CCCCC4)cc3)c3ccccc3n2)cc1 | 18.5 µM
COc1ccc(Cc2cnc(N)nc2N)cc1OC | 25.8 µM
CCc1cnc(N2[C@@H](C#N)[C@@H](c3ccc(C4=CCCCC4)cc3)[C@@H]2CO)s1 | > 20 µM (inactive)
Cc1ccccc1-c1ccc2c(-c3ncc(C(=O)NCCN(C)C)s3)noc2c1 | 24.7 µM
COc1ccc(-c2nc(N3CCC(N4CCCCC4)CC3)c3ccccc3n2)cc1 | > 39 µM (inactive)
O=C(C[C@@H]1CC[C@@H]2[C@H](COC[C@@H](O)CN2Cc2ccc(Oc3ccccc3)cc2)O1)N1CCN(c2ccccc2)CC1 | 16.5 µM
CC(C)NC(=O)N1CC(=O)N2[C@@H](CO)[C@H](c3ccc(/C=C/c4ccccc4)cc3)[C@@H]2C1 | > 39 µM (inactive)
CCN(C)C(=O)c1ccc2ccc(N(C)Cc3ccc(OC)cc3)n2c1 | 19.2 µM

SMILES | AC50
COc1cccc(CN2CCCCN3[C@@H](CO)[C@@H](c4ccc(-c5ccccc5OC)cc4)[C@@H]3C2)c1 | 15.7 µM
COc1ccc(-c2ccc(C3[C@@H]4CN(C(=O)c5ccc(F)cc5)C[C@H]3N4)cc2)cc1 (some centres undefined) | 24.4 µM and 13.3 µM
COCCn1cc2c(n1)C(CNC(=O)CS(C)(=O)=O)OCC2 (centres undefined) | > 39 µM (inactive)
Cc1ccc(S(=O)(=O)Nc2ccc3c(c2)C(=O)N([C@H](C)CO)C[C@H](C)[C@H](CN(C)Cc2ccc(C(F)(F)F)cc2)O3)cc1 | 18.5 µM
COCCN1C(=O)CCC12CCC(NC(=O)c1cc(C)on1)CC2 (centres undefined) | > 39 µM (inactive)
COc1ccc(NC(=O)N2CCCCN3[C@H](CO)[C@@H](c4ccc(-c5ccccc5F)cc4)[C@H]3C2)cc1 | 19.7 µM
CCCN1CCC[C@@H]2Cc3[nH]ncc3C[C@H]21 | > 39 µM (inactive)
Cc1cccc(NC2COC3(CCN(C(=O)c4ccsc4)C3)C2)c1 (centres undefined) | 28.1 µM
CCOCCCNC(=O)c1ccc2ccc(N3CCN(CC4CC4)CC3)n2c1 | > 39 µM (inactive)
C/C=C/c1ccc([C@H]2[C@@H](CO)N3CCCCN(S(=O)(=O)c4ccc(OC)cc4)C[C@@H]23)cc1 | 32.2 µM
CN1c2ccc(C3=CCCCC3)cc2[C@@H]2[C@@H](CCN2C(=O)c2ccc3c(c2)OCO3)[C@@H]1CO | 27.5 µM
CN1C(=O)CC2C1CCN2S(=O)(=O)Cc1ccccc1 (centres undefined) | > 39 µM (inactive)
CCCCCCCCCCCCCCCC[N+](C)(C)C | 15.3 µM
CCCC(Nc1nc(-c2cccnc2)nc2c1cnn2C)c1cccs1 (centres undefined) | > 39 µM (inactive)
CN1CCC2(C=C(C(=O)N3CCCC3)c3ccccc32)CC1 | > 39 µM (inactive)
CCCCN(C)C(=O)c1cnc(-c2noc3cc(NCC4CC4)ccc23)s1 | 20.4 µM
COC(=O)C1CC23C=CNC4CCC5(c6ccccc6NC15C2C)C43 (centres undefined) | 19.4 µM
Cc1ccc(S(=O)(=O)N2CC[C@@H]3[C@H]2c2cc(-c4cccc(C(=O)N(C)C)c4)ccc2N[C@@H]3CO)cc1 | 30.1 µM
O=C(NCCN1CCCC1)[C@H]1[C@H](CO)[C@H]2Cn3c(cccc3=O)[C@H]2N1Cc1ccccn1 | > 39 µM (inactive)
COc1cccc(S(=O)(=O)N2CCCCN3[C@H](CO)[C@H](c4ccc(C#CCC(C)C)cc4)[C@H]3C2)c1 | 7.96 µM and 10.6 µM
O=C(O)CN1C[C@H]2c3ccccc3C(OCC3CC3)[C@@H]2C1 (some centres undefined) | > 39 µM (inactive)
CCCNC(=O)N1[C@@H](C#N)[C@H](c2ccc(C#Cc3cccc(F)c3)cc2)[C@@H]1CO | 19.3 µM
